Patent US20170121315A1, “HETEROBICYCLICALLY SUBSTITUTED 4-OXOBUTANE ACID DERIVATIVES AND USE THEREOF” (priority 2014, published 2017)

Biological target: T1, human macrophage elastase (HME/hMMP-12) (Homo sapiens, UniProt P39900)
T1 construct: purchased R&D Systems 917-MP
Assay: In vitro HME inhibition test (standard or high-sensitivity)
Assay type: biochemical
Details: in some cases mean values, rounded to two significant figures
Method: The potency of the compounds according to the invention with respect to HME (MMP-12) is determined in an in vitro inhibition test. The HME-mediated amidolytic cleavage of a suitable peptide substrate leads to an increase in fluorescent light therein. The signal intensity of the fluorescent light is directly proportional to the enzyme activity. The active concentration of a test compound at which half the enzyme is inhibited (50% signal intensity of the fluorescent light) is reported as the IC50 value.
In a 384 hole microtiter plate, in a total test volume of 41 μl, the test buffer (0.1 M HEPES pH 7.4, 0.15 M NaCl, 0.03 M CaCl2, 0.004 mM ZnCl2, 0.02 M EDTA, 0.005% Brij®), the enzyme (0.5 nM HME; R&D Systems, 917-MP, autocatalytic activation according to the manufacturer's instructions) and the intramolecularly quenched substrate [5 μM Mca-Pro-Leu-Gly-Leu-Glu-Glu-Ala-Dap(Dnp)-NH2; Bachem, M-2670] are incubated in the absence and presence of the test substance (as a solution in DMSO) at 37° C. for two hours. The fluorescence intensity of the test mixtures is measured (excitation […], emission 393 nm). The IC50 values are ascertained by plotting the fluorescent light intensity against the active ingredient concentration.
In this case, an enzyme concentration ten times lower is used (final concentration, e.g. 0.05 nM) in order to achieve an increased test sensitivity. The incubation period chosen for the test is correspondingly longer (e.g. 16 hours).

T1 sequence (P39900 106-470): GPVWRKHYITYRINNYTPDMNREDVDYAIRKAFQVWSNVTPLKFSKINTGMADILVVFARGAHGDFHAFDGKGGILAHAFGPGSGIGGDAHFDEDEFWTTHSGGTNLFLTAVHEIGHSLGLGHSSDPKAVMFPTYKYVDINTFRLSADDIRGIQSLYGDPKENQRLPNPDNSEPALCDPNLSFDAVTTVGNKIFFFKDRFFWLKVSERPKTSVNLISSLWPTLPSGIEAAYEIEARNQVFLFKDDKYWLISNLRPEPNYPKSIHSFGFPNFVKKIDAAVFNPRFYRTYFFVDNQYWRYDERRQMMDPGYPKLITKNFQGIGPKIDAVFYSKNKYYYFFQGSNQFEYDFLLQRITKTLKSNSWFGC

SMILES	IC50
COc1ccc(CCOc2ccc3oc(C(=O)CC(CCn4nnc5ccccc5c4=O)C(=O)O)cc3c2)cc1 (racemic) [Example 3, (+/−)-4-{5-[2-(4-Methoxyphenyl)ethoxy]-1-benzofur-2-yl}-4-oxo-2-[2-(4-oxo-1,2,3-benzotriazin-3(4H)-yl)ethyl]butanoic acid]	4.1 nM
Cc1ccccc1CCOc1ccc2oc(C(=O)CC(CCn3nnc4ccccc4c3=O)C(=O)O)cc2c1 (racemic) [Example 4, (+/−)-4-{5-[2-(2-Methylphenyl)ethoxy]-1-benzofur-2-yl}-4-oxo-2-[2-(4-oxo-1,2,3-benzotriazin-3(4H)-yl)ethyl]butanoic acid]	4.3 nM
O=C(CC(CCn1nnc2ccccc2c1=O)C(=O)O)c1cc2cc(OCCCC(F)(F)F)ccc2o1 (racemic) [Example 11, (+/−)-4-Oxo-2-[2-(4-oxo-1,2,3-benzotriazin-3(4H)-yl)ethyl]-4-[5-(4,4,4-trifluorobutoxy)-1-benzofur-2-yl]butanoic acid]	4.3 nM
N#CCCCOc1ccc2oc(C(=O)CC(CCn3nnc4ccccc4c3=O)C(=O)O)cc2c1 (racemic) [Example 15, (+/−)-4-[5-(3-Cyanopropoxy)-1-benzofur-2-yl]-4-oxo-2-[2-(4-oxo-1,2,3-benzotriazin-3(4H)-yl)ethyl]butanoic acid]	4.8 nM
O=C(CC(CCn1nnc2ccccc2c1=O)C(=O)O)c1cc2cc(OCC3CCCC3)ccc2o1 (racemic) [Example 16, (+/−)-4-[5-(Cyclopentylmethoxy)-1-benzofur-2-yl]-4-oxo-2-[2-(4-oxo-1,2,3-benzotriazin-3(4H)-yl)ethyl]butanoic acid]	24 nM
O=C(CC(CCn1nnc2ccccc2c1=O)C(=O)O)c1cc2cc(OCCc3ccccc3)ccc2o1 (racemic) [Example 19, (+/−)-4-Oxo-2-[2-(4-oxo-1,2,3-benzotriazin-3(4H)-yl)ethyl]-4-[5-(2-phenylethoxy)-1-benzofur-2-yl]butanoic acid]	4.7 nM
CC(C)CCCOc1ccc2oc(C(=O)CC(CCn3nnc4ccccc4c3=O)C(=O)O)cc2c1 (racemic) [Example 40, (+/−)-4-{5-[(4-Methylpentyl)oxy]-1-benzofur-2-yl}-4-oxo-2-[2-(4-oxo-1,2,3-benzotriazin-3(4H)-yl)ethyl]butanoic acid]	4.6 nM
CC(C)CCCCOc1ccc2oc(C(=O)CC(CCn3nnc4ccccc4c3=O)C(=O)O)cc2c1 (racemic) [Example 41, (+/−)-4-{5-[(5-Methylhexyl)oxy]-1-benzofur-2-yl}-4-oxo-2-[2-(4-oxo-1,2,3-benzotriazin-3(4H)-yl)ethyl]butanoic acid]	3.9 nM
Cc1c(COc2ccc3oc(C(=O)CC(CCn4nnc5ccccc5c4=O)C(=O)O)cc3c2)cccc1C(F)(F)F (racemic) [Example 48, (+/−)-4-(5-{[2-Methyl-3-(trifluoromethyl)benzyl]oxy}-1-benzofur-2-yl)-4-oxo-2-[2-(4-oxo-1,2,3-benzotriazin-3(4H)-yl)ethyl]butanoic acid]	4 nM
N#CCCCCOc1ccc2oc(C(=O)CC(CCn3nnc4ccccc4c3=O)C(=O)O)cc2c1 (racemic) [Example 53, (+/−)-4-[5-(4-Cyanobutoxy)-1-benzofur-2-yl]-4-oxo-2-[2-(4-oxo-1,2,3-benzotriazin-3(4H)-yl)ethyl]butanoic acid]	2.9 nM
O=C(CC(CCn1nnc2ccccc2c1=O)C(=O)O)c1cc2ccc(OCCC3CCOCC3)cc2o1 (racemic) [Example 54, (+/−)-4-Oxo-2-[2-(4-oxo-1,2,3-benzotriazin-3(4H)-yl)ethyl]-4-{6-[2-(tetrahydro-2H-pyran-4-yl)ethoxy]-1-benzofur-2-yl}butanoic acid]	5.6 nM
CCCCOc1ccc2cc(C(=O)CC(CCn3nnc4ccccc4c3=O)C(=O)O)oc2c1 (racemic) [Example 61, (+/−)-4-(6-Butoxy-1-benzofur-2-yl)-4-oxo-2-[2-(4-oxo-1,2,3-benzotriazin-3(4H)-yl)ethyl]butanoic acid]	4.6 nM

More lines, now with the values ahead:

IC50	SMILES
0.65 nM	O=C(CC(CCn1nnc2ccccc2c1=O)C(=O)O)c1cc2cc(OCC3(F)CCOCC3)ccc2o1 (racemic) [Example 14, (+/−)-4-{5-[(4-Fluorotetrahydro-2H-pyran-4-yl)methoxy]-1-benzofur-2-yl}-4-oxo-2-[2-(4-oxo-1,2,3-benzotriazin-3(4H)-yl)ethyl]butanoic acid]
2.5 nM	O=C(CC(CCn1nnc2ccccc2c1=O)C(=O)O)c1cc2cc(OCc3ccc(F)cc3)ccc2o1 (racemic) [Example 22, (+/−)-4-{5-[(4-Fluorobenzyl)oxy]-1-benzofur-2-yl}-4-oxo-2-[2-(4-oxo-1,2,3-benzotriazin-3(4H)-yl)ethyl]butanoic acid]
0.2 nM	O=C(CC(CCn1nnc2ccccc2c1=O)C(=O)O)c1cc2cc(OCc3ccc(Cl)c(Cl)c3)ccc2o1 (racemic) [Example 25, (+/−)-4-{5-[(3,4-Dichlorobenzyl)oxy]-1-benzofur-2-yl}-4-oxo-2-[2-(4-oxo-1,2,3-benzotriazin-3(4H)-yl)ethyl]butanoic acid]
3.1 nM	O=C(CC(CCn1nnc2ccccc2c1=O)C(=O)O)c1cc2cc(OCc3ccccc3)ccc2o1 (racemic) [Example 28, (+/−)-4-[5-(Benzyloxy)-1-benzofur-2-yl]-4-oxo-2-[2-(4-oxo-1,2,3-benzotriazin-3(4H)-yl)ethyl]butanoic acid]
2 nM	NC(=O)c1ccc(COc2ccc3oc(C(=O)CC(CCn4nnc5ccccc5c4=O)C(=O)O)cc3c2)cc1 (racemic) [Example 35, (+/−)-4-{5-[(4-Carbamoylbenzyl)oxy]-1-benzofur-2-yl}-4-oxo-2-[2-(4-oxo-1,2,3-benzotriazin-3(4H)-yl)ethyl]butanoic acid]
0.33 nM	O=C(CC(CCn1nnc2ccccc2c1=O)C(=O)O)c1cc2cc(OCc3ccc4nonc4c3)ccc2o1 (racemic) [Example 36, (+/−)-4-[5-(2,1,3-Benzoxadiazol-5-ylmethoxy)-1-benzofur-2-yl]-4-oxo-2-[2-(4-oxo-1,2,3-benzotriazin-3(4H)-yl)ethyl]butanoic acid]
3.2 nM	O=C(CC(CCn1nnc2ccccc2c1=O)C(=O)O)c1cc2cc(OCCCc3ccc(C(F)(F)F)cc3)ccc2o1 (racemic) [Example 42, (+/−)-4-Oxo-2-[2-(4-oxo-1,2,3-benzotriazin-3(4H)-yl)ethyl]-4-(5-{3-[4-(trifluoromethyl)phenyl]propoxy}-1-benzofur-2-yl)butanoic acid]
1.3 nM	O=C(CC(CCn1nnc2ccccc2c1=O)C(=O)O)c1cc2cc(OCc3cccc(F)c3)ccc2o1 (racemic) [Example 43, (+/−)-4-{5-[(3-Fluorobenzyl)oxy]-1-benzofur-2-yl}-4-oxo-2-[2-(4-oxo-1,2,3-benzotriazin-3(4H)-yl)ethyl]butanoic acid]
2.3 nM	O=C(CC(CCn1nnc2ccccc2c1=O)C(=O)O)c1cc2cc(OCc3ccccc3F)ccc2o1 (racemic) [Example 45, (+/−)-4-{5-[(2-Fluorobenzyl)oxy]-1-benzofur-2-yl}-4-oxo-2-[2-(4-oxo-1,2,3-benzotriazin-3(4H)-yl)ethyl]butanoic acid]
1.9 nM	O=C(CC(CCn1nnc2ccccc2c1=O)C(=O)O)c1cc2cc(OCCCc3cccs3)ccc2o1 (racemic) [Example 46, (+/−)-4-Oxo-2-[2-(4-oxo-1,2,3-benzotriazin-3(4H)-yl)ethyl]-4-{5-[3-(2-thienyl)propoxy]-1-benzofur-2-yl}butanoic acid]
0.94 nM	O=C(CC(CCn1nnc2ccccc2c1=O)C(=O)O)c1cc2cc(OCc3ccncc3)ccc2o1 (racemic) [Example 47, (+/−)-4-Oxo-2-[2-(4-oxo-1,2,3-benzotriazin-3(4H)-yl)ethyl]-4-[5-(pyridin-4-ylmethoxy)-1-benzofur-2-yl]butanoic acid]
0.55 nM	O=C(CC(CCn1nnc2ccccc2c1=O)C(=O)O)c1cc2cc(OCc3cc(F)ccc3F)ccc2o1 (racemic) [Example 49, (+/−)-4-{5-[(2,5-Difluorobenzyl)oxy]-1-benzofur-2-yl}-4-oxo-2-[2-(4-oxo-1,2,3-benzotriazin-3(4H)-yl)ethyl]butanoic acid]
2.1 nM	O=C(CC(CCn1nnc2ccccc2c1=O)C(=O)O)c1cc2cc(OCc3ccc(F)cc3F)ccc2o1 (racemic) [Example 52, (+/−)-4-{5-[(2,4-Difluorobenzyl)oxy]-1-benzofur-2-yl}-4-oxo-2-[2-(4-oxo-1,2,3-benzotriazin-3(4H)-yl)ethyl]butanoic acid]
3.7 nM	CCCCCOc1ccc2cc(C(=O)CC(CCn3nnc4ccccc4c3=O)C(=O)O)oc2c1 (racemic) [Example 55, (+/−)-4-Oxo-2-[2-(4-oxo-1,2,3-benzotriazin-3(4H)-yl)ethyl]-4-[6-(pentyloxy)-1-benzofur-2-yl]butanoic acid]
2.9 nM	CCCCCCOc1ccc2cc(C(=O)CC(CCn3nnc4ccccc4c3=O)C(=O)O)oc2c1 (racemic) [Example 64, (+/−)-4-[6-(Hexyloxy)-1-benzofur-2-yl]-4-oxo-2-[2-(4-oxo-1,2,3-benzotriazin-3(4H)-yl)ethyl]butanoic acid]
3.8 nM	CCCCCCCOc1ccc2cc(C(=O)CC(CCn3nnc4ccccc4c3=O)C(=O)O)oc2c1 (racemic) [Example 67, (+/−)-4-[6-(Heptyloxy)-1-benzofur-2-yl]-4-oxo-2-[2-(4-oxo-1,2,3-benzotriazin-3(4H)-yl)ethyl]butanoic acid]
